# Entries after “also recorded” stand apart in the source; their conditions may differ.
# How the values were obtained:
# tomato = test: Field trials in tomato; type: in vivo
# Excerpt: Field trials show both increasing yield and larger, higher quality fruits. Tomato yields were increased by up to 40% in California field trials.
# wheat = test: Wheat plant growth assay (seed treatment); type: in vivo; settings: seed treatment 1 ug/seed, four days after emergence, vs mock treated
# Description: To determine the effect of AB09 on plants, AB09 was seed treated at a rate of 1 ug/seed onto wheat seeds. Plants were analyzed four days after emergence. […] AB09 was applied to wheat seeds, which were planted in sand and shoots were measured for height at four days post-emergence. Control seeds received a mock treatment. The WinRhizo Pro root scanner and software were used to obtain root length and surface area. AB09 at a rate of lug/seed in acetone was treated onto seeds and the acetone was allowed to fully evaporate. Control seeds were mock treated with acetone. Seeds were planted in wet sand in 50 mL tubes sand, placed under fluorescent lights, and watered with tap water. Seedlings were measured four days post-emergence for shoot height. The WinRhizo Pro root scanner and software were used to obtain root length and surface area.
# [1] = test system: phosphate solubilizing bacteria (PSB); test: Halo assay of phosphate solubilizing bacteria on agar plates containing insoluble phosphate; type: cell-based; settings: AB09 treated PSB vs control treated PSB
# Excerpt: Larger halos indicate higher microbial solubilization activity.
# soil consortia cultures = test: 16S microbiome analysis of soil cultures grown in nitrogen free media; type: cell-based; settings: Alpha soil culture, 25 ug/mL, 72 h, vs control
# Description: 16S microbiome analysis was performed on soil-inoculated cultures grown in nitrogen free media in order to compare the effects of AB09 treatment vs control. […] The increased abundance of these diazotrophs in response to AB09 is consistent with the increased nitrogenase activity observed in Table 1 for Alpha soil. […] Known nitrogen fixing bacteria are indicated with an asterisk (*). Soil inoculated cultures (from Alpha Ag soil culture from Table 1) experience an increase in the relative abundance of diazotrophs when treated with AB09. Soil from agricultural areas was air dried and sieved with a 2 mm sieve. Five hundred milligrams of dried, sieved soil was added to 50 mL of nitrogen free media (Burks-N) in a 250 mL baffled flask. AB09 was added to 25 ug/mL and water was added in equivalent amounts for controls. Flasks were topped with a foam plug and incubated at 30 C, shaking at 100 rpm. DNA was extracted from 250 ul of the soil culture after 72 h of growth using the Qiagen PowerSoil Pro Kit (Cat No. 47014). DNA was checked on a gel and Qubit for quality and concentration, respectively. Ten nanograms of DNA was used in the 16S barcoding kit (SQK-RAB204) with the MinION sequencer. Fastq files from MinKnow were uploaded to Epi2Me and the 16S Oxford Nanopore Technologies kit (SQK-RAB204) was selected. […] Read counts were normalized to the total number of reads with an identified barcode.
# corn = test: Corn field trials in Iowa, nitrogen deficiency; type: in vivo
# Excerpt: In some instances, disclosed herein is a field trial of AB09 application to corn plants.
# In some instances, disclosed herein is an aerial photograph description of a large scale strip field trial of corn plants applied with a compound, formulation, method, container, or kit disclosed herein, for example AB09. […] Greener (less yellow) coloring is indicative of healthier plants.
# AB09 was applied to Buckingham, Iowa corn plots at the start of the season. In some instances, disclosed herein is a photo of corn at stage R3, with a treated plot on the right, and an untreated plot […]. Leaf firing (yellowing on the lower leaves) is apparent on the untreated plot, where AB09 plants are greener. In some instances, disclosed herein is an aerial image of treated and untreated plots at tasseling. […] Nitrogen content was quantified using a standard tissue sampling test to measure percent nitrogen content in leaf tissue samples.
# lettuce = test: Field trials in lettuce; type: in vivo; settings: field trial
# [2] = test system: soil consortia cultures with corn plant; test: Phosphate solubilization with corn (foliar spray or soil applied) in soil consortia cultures; type: in vivo, B73 Corn
# Excerpt: In order to test the ability of AB09 to stimulate a phosphate solubilization phenotype when applied on plants versus directly into soil, a 3 week old corn plant was introduced into the soil consortia cultures. Approximately two weeks prior to the experiment, corn plants were removed from soil and roots were cleaned of potting soil. […] Corn leaves were sprayed with AB09 (roots protected with foil during spray application) and roots were placed in flasks of NBRIP liquid media and soil inoculant (FIG. 4B). The flasks were placed on a low speed orbital shaker under fluorescent lights and the media supernatant was tested for phosphate concentration after 24 h.
# FIG. 4A illustrates that B73 Corn plants were grown until V3 growth stage, removed from soil, rinsed, and placed in tap water for 1.5 weeks to induce nutrient stress FIG. 4B illustrates that plants received either foliar (3 mL/plant using a fingertip sprayer) or soil applied treatments and were placed in 250 mL baffled flasks containing 50 mL NBRIP growth medium ([53 mM] Ca3(PO4)2) and 500 mg of 2 mm particle-sized soil. Flasks with treated corn and sterilized foam caps with were placed on orbital shakers at 100 RPM for 1 day at room temperature under fluorescent lights. FIG. 4C illustrates that orthophosphate was measured using the malachite-green phosphate method. […]
# [3] = Field trial of soil phosphate depletion on Iowa farmland; type: in vivo; settings: Iowa field plots, vs untreated plots
# Description: Available soil phosphate was measured at the beginning of the growing season (Pre VT) and at the end of the growing season (Post VT).
# The solubilizing activity of AB09 was measured in field trials on Iowa farmland. Over the course of a growing season, plants pull available phosphate from the soil, resulting in lower levels at the end of the season versus at the beginning. This phosphate depletion can be measured with standard soil tests.
compound,measurement,setting,value
"CC1=CC(Oc2c(C)occc2=O)OC1=O (stereo not shown) [AB09, maltol lactone]",increase of tomato yields,tomato; California field trials,up to 40%
same,tomato fruit size and number,tomato; treated plants,larger and more numerous fruits
same,root length,wheat,increase
same,root surface area,wheat,increase
same,shoot height,wheat,increase
same,clearance halos around PSB colony,[1],larger clearance
same,abundance of nitrogen fixing bacteria Azotobacter chroococcum and Pseudomonas stutzeri,soil consortia cultures,increased the abundance
same,leaf firing (yellowing of the lower leaves) of corn,"corn; Buckingham, Iowa corn plots, stage R3, vs untreated plot",greener; also recorded: reduced leaf firing
same,nitrogen content in corn leaf tissue samples,corn; compared to a control sample,higher leaf nitrogen content
same,yellowing of corn plants at de-tassling,"corn; large scale strip field trial, aerial photograph, vs control plants",reduced yellowing
same,NDVI of plots at tasseling (aerial image),corn; treated strip vs untreated plot,higher NDVI values
same,average size of lettuce heads,lettuce,increased the average size
same,increase in lettuce harvest weight,lettuce,25%
same,"phosphate solubilization, treatment directly applied to the soil supernatant","[2]; corn roots in NBRIP with soil inoculant, after 24 h",increase
same,"phosphate solubilization, treatment applied to corn leaves as a foliar spray","[2]; two treatment doses (25 or 50 ug/mL, 3 mL/plant), media supernatant after 24 h",increase
same,soil phosphate depletion over the growing season (pre VT to post VT),[3],less phosphate depletion; also recorded: significantly reduced
